Source: patent publication US6743446B2, “Methods for stabilizing biologically active agents encapsulated in biodegradable controlled-release polymers” (The Ohio State University Research Foundation, priority 1999, dated 2004)
Values joined by “and” are separate entries in the source; they are usually repeats but may differ in a detail not shown here. Equal entries are not always repeated. Structures can show the parent of a compound that is named as a salt. Where two headings read alike, the source gives them in different places.

Tests used:
[1] = pH of the release medium during incubation of polymer devices; assay type: physicochemical; details: 3% BSA/PLGA50/50 (0.20 dl/g) microspheres with 3% base, after 35 days
Excerpt: This effect was confirmed by changes in pH in the release medium and alteration of the PLGA degradation rate.
The pH of the release medium was monitored by a Corning 430 pH meter (Corning Inc., NY) at each sampling interval.

[2] = VCR and VBL stability and release in PLGA microspheres by HPLC; assay type: physicochemical
Procedure: All other reagents and solvents were of analytical grade or purer and purchased from commercial suppliers. Microspheres Preparation Microspheres were prepared by a standard oil-in-oil emulsion-solvent extraction method (17). […] The resulting solution or suspension was added drop-wise to 25 ml of oil (95% cottonseed oil and 5% Span 85 emulsifier) stirred at 500 rpm and room temperature. After 2.5 h of microsphere hardening. 40 ml of petroleum ether (bp: 50 to 100° C.) were added to the emulsion to extract CAN. The emulsion was stirred for additional 15 min, the particles were collected by filtration, and washed 3 times with petroleum ether. The hardened microspheres were flash-frozen with liquid nitrogen and lyophilized with a Labconco Freezone 6 system for 1 day.
The HPLC system consisted of the following: a 510 pump, a 717 Plus autosampler, and a 486 UV detector (waters, Milford, Mass.). […] The mobile phase was composed of aqueous solution of sodium phosphate (10 mM) and methanol 40:60 (v/v) (pH 7.0). For UV detection, the wavelength was set to 298 nm.
Drug release from microspheres was carried out in PBS (127 mM NaCl, 3 mM KCl, 8 mM Na2HPO4, 1 mM KH2PO4, pH 7.4) containing Tween 80 (0.02% w/w/) (PBST) at 37° C. under perfect sink conditions. […] Microspheres were weighed and dissolved in a 50% (v/v) ACN water solution. The precipitated polymer and salts were spun down by brief centrifugation. An aliquot of the supernatant containing drug was removed and analyzed by HPLC.

[3] = pH measurement of saturated basic salts in water; assay type: physicochemical; details: excess basic salt suspended in water, 37° C., 7 days
Procedure: The suspension was then incubated at 37° C. for 7 days. The pH of the supernatant was determined with a Corning 430 pH meter (Corning Inc., NY).

[4] = pH of saturated basic salt suspension after addition of 1 N HCl; assay type: physicochemical; details: acid added to the saturated suspension with excess salt, 37° C., 3 days
Excerpt: The difference of the neutralization effect from the salts is also reflected in the different water contents of their PLGA devices.

[5] = reference (23); cited from earlier work
[6] = aqueous solution; cited from earlier work

SMILES | pH of the release medium [1] | drug degraded to the basic product during microsphere preparation ([2]; VCR PLGA microspheres with co-encapsulated base) | pH of saturated solution [3] | pH after addition of 100 μl of 1 N HCl [4] | pH of saturated solution [5] | pH of maximum stability [6] | stability of encapsulated drug ([2]; PLGA (50% D,L lactide content) microspheres) | drug remaining intact ([2]; VCR PLGA microspheres with ZnCO3, after 3 weeks) | drug remaining intact ([2]; VCR PLGA microspheres with ZnCO3, after 4 weeks) | drug remained in its native form ([2]; VCR in PLGA microspheres without base, 14 days incubation at 37° C.)
[Mg+2].[OH-].[OH-] [Mg(OH)2] | < 4.5 | 12% | 9.97 and 9.76 | 8.99 | 9.8 |  |  |  |  | 
CC[C@]1(O)C[C@H]2CN(CCc3c([nH]c4ccccc34)[C@@](C(=O)OC)(c3cc4c(cc3OC)N(C=O)[C@H]3[C@@](O)(C(=O)OC)[C@H](OC(C)=O)[C@]5(CC)C=CCN6CC[C@]43[C@@H]65)C2)C1 [VCR, Vincristine sulfate] |  |  |  |  |  | ~4.5 | becomes unstable | 97% | 92% | 23%
